According to patent US20230085307A1, “PYRIDAZINONE COMPOUND AND HERBICIDE” (NISSAN CHEMICAL CORPORATION, priority 2019, published 2023):

Columns and labels:
persian speedwell [1] = assay: Test Example 5: herbicidal effect by foliage application, plastic box (Table 20, symbol R); format: in vivo, Persian speedwell (Veronica persica); conditions: foliage application; for R: persian speedwell, herbicidal effect / R: persian speedwell, herbicidal effect (criteria 0-5): AAH 320 g/ha; for R: persian speedwell, herbicidal effect: three weeks after application; for R: persian speedwell, herbicidal effect (criteria 0-5): evaluated three weeks after application
Summary of the method: (§1)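 Plants were sown into sterilized diluvial soil under about 1.5 cm cover and kept in a greenhouse at 25° C. to 30° C. Fourteen days on, foliage received an even spray of the diluted emulsion. Herbicidal or crop effect was judged three weeks afterwards.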

barnyard grass = assay: Test Example 5: herbicidal effect by foliage application, plastic box (Table 20, symbol H); format: in vivo, barnyard grass (Echinochloa crus-galli); conditions: foliage application; for H: barnyard grass, herbicidal effect / H: barnyard grass, herbicidal effect (criteria 0-5): AAH 320 g/ha; for H: barnyard grass, herbicidal effect: three weeks after application; for H: barnyard grass, herbicidal effect (criteria 0-5): evaluated three weeks after application
Summary of the method: as §1

southern crabgrass = assay: Test Example 4: herbicidal effect by soil treatment (Table 19, symbol F); format: in vivo, southern crabgrass (Digitaria ciliaris)
Summary of the method: (§2)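 Pre-emergence style soil spray: seeds under ~1.5 cm sterilized diluvial soil received a uniform coat of emulsion diluted to the predetermined herbicide amount. Greenhouse 25–30° C; readout at week three on previously defined criteria.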

blackgrass = assay: Test Example 4: herbicidal effect by soil treatment (Table 19, symbol J); format: in vivo, blackgrass (Alopecurus myosuroides)
Summary of the method: as §2

windgrass [2] = assay: Test Example 5: herbicidal effect by foliage application, plastic box (Table 20, symbol L); format: in vivo, windgrass (Apera spica-venti); conditions: foliage application; for L: windgrass, herbicidal effect / L: windgrass, herbicidal effect (criteria 0-5): AAH 320 g/ha; for L: windgrass, herbicidal effect: three weeks after application; for L: windgrass, herbicidal effect (criteria 0-5): evaluated three weeks after application
Summary of the method: as §1

Chinese sprangletop = assay: Test Example 3: herbicidal effect by foliage application, Wagner pot (Table 18, symbol D); format: in vivo, chinese sprangletop (Leptochloa chinensis); conditions: for herbicidal effect on D (Chinese sprangletop), rating 0-5: 320 g/ha; for herbicidal effect on D: Chinese sprangletop: amount of applied herbicide 320 g/ha
Summary of the method: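 Plants were sown in alluvial soil held under 0.1–0.5 cm standing water and grown 14 days in a greenhouse at 25–30 °C. An emulsifiable formulation, water-diluted to the set dose, was then sprayed onto the foliage, and effects were scored three weeks later using previously defined criteria.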

lambsquarters [3] = assay: Test Example 4: herbicidal effect by soil treatment (Table 19, symbol O); format: in vivo, lambsquarters (Chenopodium album)
Summary of the method: as §2

persian speedwell [4] = assay: Test Example 4: herbicidal effect by soil treatment (Table 19, symbol R); format: in vivo, Persian speedwell (Veronica persica); conditions: amount of applied herbicide 320 g/ha
Summary of the method: as §2

oval-leafed pondweed = assay: Test Example 2: herbicidal activity, application during weed generation under submerged conditions (Table 17, symbol C); format: in vivo, oval-leafed pondweed (Monochoria vaginalis); conditions: AAH 320 g/ha; application during weed generation, submerged conditions
Summary of the method: (§3)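 Herbicide emulsion, diluted with water to the chosen amount, is applied onto 4 cm floodwater over alluvial soil where the weeds were co-sown and raised at 25–30° C. Application timing: 1–2 leaves. Assessment: three weeks afterwards.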

lambsquarters [5] = assay: Test Example 5: herbicidal effect by foliage application, plastic box (Table 20, symbol O); format: in vivo, lambsquarters (Chenopodium album); conditions: foliage application; for O: lambsquarters, herbicidal effect / O: lambsquarters, herbicidal effect (criteria 0-5): AAH 320 g/ha; for O: lambsquarters, herbicidal effect: three weeks after application; for O: lambsquarters, herbicidal effect (criteria 0-5): evaluated three weeks after application
Summary of the method: as §1

velvetleaf = assay: Test Example 5: herbicidal effect by foliage application, plastic box (Table 20, symbol M); format: in vivo, velvetleaf (Abutilon theophrasti); conditions: foliage application; for M: velvetleaf, herbicidal effect / M: velvetleaf, herbicidal effect (criteria 0-5): AAH 320 g/ha; for M: velvetleaf, herbicidal effect: three weeks after application; for M: velvetleaf, herbicidal effect (criteria 0-5): evaluated three weeks after application
Summary of the method: as §1

late watergrass = assay: Test Example 2: herbicidal activity, application during weed generation under submerged conditions (Table 17, symbol A); format: in vivo, late watergrass (Echinochloa oryzicola); conditions: AAH 320 g/ha; application during weed generation, submerged conditions
Summary of the method: as §3

wild oat [6] = assay: Test Example 5: herbicidal effect by foliage application, plastic box (Table 20, symbol I); format: in vivo, wild oat (Avena fatua); conditions: foliage application; for I: wild oat, herbicidal effect / I: wild oat, herbicidal effect (criteria 0-5): AAH 320 g/ha; for I: wild oat, herbicidal effect: three weeks after application; for I: wild oat, herbicidal effect (criteria 0-5): evaluated three weeks after application
Summary of the method: as §1

Italian ryegrass = assay: Test Example 4: herbicidal effect by soil treatment (Table 19, symbol K); format: in vivo, Italian ryegrass (Lolium multiflorum)
Summary of the method: as §2

Japanese bulrush = assay: Test Example 1: herbicidal activity, application before weed generation under submerged conditions (Table 16, symbol B); format: in vivo, Japanese bulrush (Schoenoplectus juncoides); conditions: 320 g/ha applied herbicide
Summary of the method: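 Submerged Wagner pots (alluvial soil, 4 cm water) sown with weed seeds and planted with 2.5-leaf rice seedlings; emulsifiable concentrate diluted in water applied to water surface on sowing day. Held in greenhouse at 25-30 °C; injury scored 0-5 by herbicidal rate after three weeks.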

wild oat [7] = assay: Test Example 4: herbicidal effect by soil treatment (Table 19, symbol I); format: in vivo, wild oat (Avena fatua)
Summary of the method: as §2

windgrass [8] = assay: Test Example 4: herbicidal effect by soil treatment (Table 19, symbol L); format: in vivo, windgrass (Apera spica-venti)
Summary of the method: as §2

[9] = amount of applied herbicide 320 g/ha
[10] = 320 g/ha, 3 weeks after application

| SMILES | R: persian speedwell, herbicidal effect (persian speedwell [1]) | H: barnyard grass, herbicidal effect (barnyard grass) | herbicidal effect rating, F: southern crabgrass (southern crabgrass; [9]) | herbicidal effect rating, J: blackgrass (blackgrass; [9]) | L: windgrass, herbicidal effect (windgrass [2]) | herbicidal effect on D (Chinese sprangletop), rating 0-5 (Chinese sprangletop) | herbicidal effect rating, O: lambsquarters (lambsquarters [3]; [9]) | herbicidal effect rating, C: oval-leafed pondweed (oval-leafed pondweed) | O: lambsquarters, herbicidal effect (lambsquarters [5]) | M: velvetleaf, herbicidal effect (velvetleaf) | herbicidal effect rating, A: late watergrass (late watergrass) | I: wild oat, herbicidal effect (wild oat [6]) | herbicidal effect rating, K: Italian ryegrass (Italian ryegrass; [9]) | Herbicidal effect on B: Japanese bulrush (grade 0-5) (Japanese bulrush) | herbicidal effect rating, I: wild oat (wild oat [7]; [9]) | R: persian speedwell, herbicidal effect (criteria 0-5) (persian speedwell [1]) | H: barnyard grass, herbicidal effect (criteria 0-5) (barnyard grass) | herbicidal effect on F: southern crabgrass (southern crabgrass; [9]) | herbicidal effect on J: blackgrass (blackgrass; [9]) | L: windgrass, herbicidal effect (criteria 0-5) (windgrass [2]) | further results |
| --- | --- | --- | --- | --- | --- | --- | --- | --- | --- | --- | --- | --- | --- | --- | --- | --- | --- | --- | --- | --- | --- |
| C=CCOc1ccccc1-c1sc2ccccc2c1-c1c(O)c(C)nn(C)c1=O [1-110] | 5 (Herbicidal rate of 90% or more (almost completely withered)) | 3 (Herbicidal rate of 40% or more and less than 70%) | 3 (Herbicidal rate of 40% or more and less than 70%) | 2 (Herbicidal rate of 20% or more and less than 40%) | 3 (Herbicidal rate of 40% or more and less than 70%) | 3 (Herbicidal rate of 40% or more and less than 70%) | 0 (Herbicidal rate of 5% or less (almost no effect)) | 0 (Herbicidal rate of 5% or less (almost no effect)) | 0 (Herbicidal rate of 5% or less (almost no effect)) | 2 (Herbicidal rate of 20% or more and less than 40%) | 3 (Herbicidal rate of 40% or more and less than 70%) | 3 (Herbicidal rate of 40% or more and less than 70%) | 2 (Herbicidal rate of 20% or more and less than 40%) | 0 (Herbicidal rate of 5% or less (almost no effect)) | 1 (Herbicidal rate of 5% or more and less than 20%) |  |  |  |  |  | herbicidal effect rating, R: persian speedwell (persian speedwell [4]): 3 (Herbicidal rate of 40% or more and less than 70%) |
| Cc1nn(C)c(=O)c(-c2c(-c3ccccc3OC(F)(F)F)sc3ccc(F)cc23)c1O [2-043] |  |  |  |  |  | 3 (Herbicidal rate of 40% or more and less than 70%) |  | 0 (Herbicidal rate of 5% or less (almost no effect)) |  |  | 0 (Herbicidal rate of 5% or less (almost no effect)) |  |  | 2 (Herbicidal rate of 20% or more and less than 40%) |  |  |  |  |  |  | effect on persian speedwell (R) (persian speedwell [1]; [10]): 5 (Herbicidal rate of 90% or more (almost completely withered)); effect on barnyard grass (H) (barnyard grass; [10]): 4 (Herbicidal rate of 70% or more and less than 90%); herbicidal effect rating, L: windgrass (windgrass [8]; 320 g/ha): 0 (Herbicidal rate of 5% or less (almost no effect)); herbicidal effect rating, F: southern crabgrass (southern crabgrass; 320 g/ha): 5 (Herbicidal rate of 90% or more (almost completely withered)); herbicidal effect rating, J: blackgrass (blackgrass; 320 g/ha): 0 (Herbicidal rate of 5% or less (almost no effect)); effect on windgrass (L) (windgrass [2]; [10]): 3 (Herbicidal rate of 40% or more and less than 70%); herbicidal effect rating, O: lambsquarters (lambsquarters [3]; 320 g/ha): 5 (Herbicidal rate of 90% or more (almost completely withered)); effect on lambsquarters (O) (lambsquarters [5]; [10]): 4 (Herbicidal rate of 70% or more and less than 90%); effect on velvetleaf (M) (velvetleaf; [10]): 5 (Herbicidal rate of 90% or more (almost completely withered)); effect on wild oat (I) (wild oat [6]; [10]): 2 (Herbicidal rate of 20% or more and less than 40%); herbicidal effect rating, K: Italian ryegrass (Italian ryegrass; 320 g/ha): 0 (Herbicidal rate of 5% or less (almost no effect)); herbicidal effect rating, I: wild oat (wild oat [7]; 320 g/ha): 0 (Herbicidal rate of 5% or less (almost no effect)) |
| COCCOC(=O)Oc1c(C)nn(C)c(=O)c1-c1c(-c2ccc(OC(F)F)cc2)sc2ccc(F)cc12 [2-295] |  |  |  |  |  |  |  | 3 (Herbicidal rate of 40% or more and less than 70%) |  |  | 5 (Herbicidal rate of 90% or more (almost completely withered)) |  |  | 3 (Herbicidal rate of 40% or more and less than 70%) |  | 5 (Herbicidal rate of 90% or more (almost completely withered)) | 5 (Herbicidal rate of 90% or more (almost completely withered)) | 5 (Herbicidal rate of 90% or more (almost completely withered)) | 4 (Herbicidal rate of 70% or more and less than 90%) | 5 (Herbicidal rate of 90% or more (almost completely withered)) | herbicidal effect on D: Chinese sprangletop (Chinese sprangletop): 4 (Herbicidal rate of 70% or more and less than 90%); herbicidal effect on O: lambsquarters (lambsquarters [3]; [9]): 5 (Herbicidal rate of 90% or more (almost completely withered)); herbicidal effect on R: persian speedwell (persian speedwell [4]): 5 (Herbicidal rate of 90% or more (almost completely withered)); O: lambsquarters, herbicidal effect (criteria 0-5) (lambsquarters [5]): 5 (Herbicidal rate of 90% or more (almost completely withered)); M: velvetleaf, herbicidal effect (criteria 0-5) (velvetleaf): 5 (Herbicidal rate of 90% or more (almost completely withered)); I: wild oat, herbicidal effect (criteria 0-5) (wild oat [6]): 3 (Herbicidal rate of 40% or more and less than 70%); herbicidal effect on K: Italian ryegrass (Italian ryegrass; [9]): 5 (Herbicidal rate of 90% or more (almost completely withered)); herbicidal effect on I: wild oat (wild oat [7]; [9]): 1 (Herbicidal rate of 5% or more and less than 20%) |
| Cc1nn(C)c(=O)c(-c2c(-c3ccc4c(c3)OCCO4)sc3ccccc23)c1O [1-089] | 5 (Herbicidal rate of 90% or more (almost completely withered)) | 5 (Herbicidal rate of 90% or more (almost completely withered)) | 3 (Herbicidal rate of 40% or more and less than 70%) | 0 (Herbicidal rate of 5% or less (almost no effect)) | 4 (Herbicidal rate of 70% or more and less than 90%) | 0 (Herbicidal rate of 5% or less (almost no effect)) | 5 (Herbicidal rate of 90% or more (almost completely withered)) | 1 (Herbicidal rate of 5% or more and less than 20%) | 3 (Herbicidal rate of 40% or more and less than 70%) | 5 (Herbicidal rate of 90% or more (almost completely withered)) | 5 (Herbicidal rate of 90% or more (almost completely withered)) | 0 (Herbicidal rate of 5% or less (almost no effect)) | 0 (Herbicidal rate of 5% or less (almost no effect)) | 4 (Herbicidal rate of 70% or more and less than 90%) | 0 (Herbicidal rate of 5% or less (almost no effect)) |  |  |  |  |  | herbicidal effect rating, L: windgrass (windgrass [8]; [9]): 0 (Herbicidal rate of 5% or less (almost no effect)) |
| C=CCSCc1ccc(-c2sc3ccc(F)cc3c2-c2c(O)c(C)nn(C)c2=O)cc1 [2-323] |  |  |  |  |  |  |  | 0 (Herbicidal rate of 5% or less (almost no effect)) |  |  | 3 (Herbicidal rate of 40% or more and less than 70%) |  |  | 2 (Herbicidal rate of 20% or more and less than 40%) |  | 5 (Herbicidal rate of 90% or more (almost completely withered)) | 4 (Herbicidal rate of 70% or more and less than 90%) | 1 (Herbicidal rate of 5% or more and less than 20%) | 0 (Herbicidal rate of 5% or less (almost no effect)) | 5 (Herbicidal rate of 90% or more (almost completely withered)) | herbicidal effect on L: windgrass (windgrass [8]; [9]): 0 (Herbicidal rate of 5% or less (almost no effect)); herbicidal effect on D: Chinese sprangletop (Chinese sprangletop): 2 (Herbicidal rate of 20% or more and less than 40%); herbicidal effect on O: lambsquarters (lambsquarters [3]; [9]): 3 (Herbicidal rate of 40% or more and less than 70%); O: lambsquarters, herbicidal effect (criteria 0-5) (lambsquarters [5]): 5 (Herbicidal rate of 90% or more (almost completely withered)); M: velvetleaf, herbicidal effect (criteria 0-5) (velvetleaf): 5 (Herbicidal rate of 90% or more (almost completely withered)); I: wild oat, herbicidal effect (criteria 0-5) (wild oat [6]): 3 (Herbicidal rate of 40% or more and less than 70%); herbicidal effect on K: Italian ryegrass (Italian ryegrass; [9]): 4 (Herbicidal rate of 70% or more and less than 90%); herbicidal effect on I: wild oat (wild oat [7]; [9]): 0 (Herbicidal rate of 5% or less (almost no effect)) |
